One assay addresses T1, hM3 receptor (Homo sapiens, UniProt P20309).
T1 construct: expressed in transfected cells
Briefly: Blockade of agonist-mediated calcium release via FLIPR. Type of assay: cell-based. The conditions noted are these: CHO cells stably expressing the hM3 receptor, oxotremorine EC90. From the text: C. Blockade of Agonist-Mediated Calcium Release Via FLIPR Assays
Muscarinic receptor subtypes (M1, M3 and M5 receptors), which couple to Gq proteins, activate the phospholipase C (PLC) pathway upon agonist binding to the receptor. As a result, activated PLC hydrolyzes phosphatyl inositol diphosphate (PIP2) to diacylglycerol (DAG) and phosphatidyl-1,4,5-triphosphate (IP3), which in turn generates calcium release from intracellular stores, i.e., endoplasmic and sarcoplasmic reticulum. […] This fluorescence event is measured in real time by the FLIPR, which detects the change in fluorescence from a monolayer of cells cloned with human M1 and M3, and chimpanzee M5 receptors. Antagonist potency is determined by the ability of antagonists to inhibit agonist-mediated increases in intracellular calcium. […]
To determine antagonist potency, the dose-dependent stimulation of intracellular Ca^2+ release for oxotremorine was first determined so that antagonist potency can later be measured against oxotremorine stimulation at an EC90 concentration. […]
The parameters used for the FLIPR were: exposure length of 0.4 seconds, laser strength of 0.5 watts, excitation wavelength of 488 nm, and emission wavelength of 550 nm. Baseline was determined by measuring the change in fluorescence for 10 seconds prior to addition of agonist. […]

Assay [1] relates to ACh-induced bronchoconstriction. Briefly: Duration of bronchoprotection in guinea pig model of acetylcholine-induced bronchoconstriction. The conditions noted are these: inhalation, 1.5 hours post-dose. Type of assay: in vivo. Here is the method: Groups of six male guinea pigs (Duncan-Hartley (HsdPoc:DH) Harlan, Madison, Wis.) weighing between 250 and 350 g were individually identified by cage cards. Throughout the study animals were allowed access to food and water ad libitum.
The test compound was administered via inhalation over 10 minutes in a whole-body exposure dosing chamber (R&S Molds, San Carlos, Calif.). The dosing chambers were arranged so that an aerosol was simultaneously delivered to 6 individual chambers from a central manifold. Guinea pigs were exposed to an aerosol of a test compound or vehicle (WFI). […] This was measured gravimetrically by comparing pre-and post-nebulization weights of the filled nebulizer.
The bronchoprotective effects of a test compound administered via inhalation were evaluated using whole body plethysmography at 1.5, 24, 48 and 72 hours post-dose.
Forty-five minutes prior to the start of the pulmonary evaluation, each guinea pig was anesthetized with an intramuscular injection of ketamine (43.75 mg/kg), xylazine (3.50 mg/kg) and acepromazine (1.05 mg/kg). […] The depth of anesthesia was monitored and adjusted if the animal responded to pinching of its paw or if the respiration rate was greater than 100 breaths/minute. […]
Starting this program initiated the experimental protocol and data collection. […] By integrating this signal over time, a measurement of flow was calculated for each breath. […]

As usually defined, the Ki is a dissociation constant, usually derived from enzyme kinetics or from competition with a known ligand.

T1 sequence (P20309 whole entry): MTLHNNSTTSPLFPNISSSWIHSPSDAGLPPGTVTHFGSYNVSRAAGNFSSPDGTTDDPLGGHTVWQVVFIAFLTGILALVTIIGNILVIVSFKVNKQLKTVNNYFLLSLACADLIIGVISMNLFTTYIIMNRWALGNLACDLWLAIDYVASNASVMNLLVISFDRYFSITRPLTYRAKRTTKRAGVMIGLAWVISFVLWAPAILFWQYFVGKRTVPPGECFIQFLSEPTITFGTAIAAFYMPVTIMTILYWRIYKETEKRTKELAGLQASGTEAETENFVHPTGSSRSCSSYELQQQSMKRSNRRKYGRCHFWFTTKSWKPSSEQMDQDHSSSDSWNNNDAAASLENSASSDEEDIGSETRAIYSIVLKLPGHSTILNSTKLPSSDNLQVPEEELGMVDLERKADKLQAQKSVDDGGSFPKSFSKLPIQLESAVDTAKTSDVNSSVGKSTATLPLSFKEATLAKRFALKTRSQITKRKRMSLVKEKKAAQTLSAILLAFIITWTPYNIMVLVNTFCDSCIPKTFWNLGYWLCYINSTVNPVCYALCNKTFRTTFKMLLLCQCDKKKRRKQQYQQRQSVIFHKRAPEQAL

On to `CNCCCCCCCCN1CC[C@@H](C(C(N)=O)(c2ccccc2)c2ccccc2)C1` [compound of formula I, 2-[(S)-1-(8-methylaminooctyl)pyrrolidin-3-yl]-2,2-diphenylacetamide], for which, on hM3 receptor, the Ki is less than 5 nM. Moreover, the “PD2(50) for ACh-induced bronchoconstriction” value in assay [1] is “less than 200 μg/mL”.

For the origin of these results see patent publication US7524880B2, “Crystalline form of a substituted pyrrolidine compound” (Theravance, Inc., priority 2004, dated 2009).
